# US20250320203A1, “4-(3H-PYRAZOLO[4,3-F]QUINOLIN-7-YL)-N-(2-(DIMETHYLAMINO)ETHYL)BENZAMIDE- OR HYDROXAMIC ACID COMPOUNDS, COMPOSITIONS, AND METHODS OF USE” (Purdue Research Foundation, priority 2022, published 2025)
# Experiments:
# haspin = target: T1, haspin (Homo sapiens, UniProt Q8TF76); experiment: ADP Glo Kinase Assay, haspin, 50 nM inhibitor; format: biochemical; details: 50 nM inhibitor conc.; means of triplicates; read-out: Percent Inhibition (%) Haspin
# T1 sequence (Q8TF76 1-798): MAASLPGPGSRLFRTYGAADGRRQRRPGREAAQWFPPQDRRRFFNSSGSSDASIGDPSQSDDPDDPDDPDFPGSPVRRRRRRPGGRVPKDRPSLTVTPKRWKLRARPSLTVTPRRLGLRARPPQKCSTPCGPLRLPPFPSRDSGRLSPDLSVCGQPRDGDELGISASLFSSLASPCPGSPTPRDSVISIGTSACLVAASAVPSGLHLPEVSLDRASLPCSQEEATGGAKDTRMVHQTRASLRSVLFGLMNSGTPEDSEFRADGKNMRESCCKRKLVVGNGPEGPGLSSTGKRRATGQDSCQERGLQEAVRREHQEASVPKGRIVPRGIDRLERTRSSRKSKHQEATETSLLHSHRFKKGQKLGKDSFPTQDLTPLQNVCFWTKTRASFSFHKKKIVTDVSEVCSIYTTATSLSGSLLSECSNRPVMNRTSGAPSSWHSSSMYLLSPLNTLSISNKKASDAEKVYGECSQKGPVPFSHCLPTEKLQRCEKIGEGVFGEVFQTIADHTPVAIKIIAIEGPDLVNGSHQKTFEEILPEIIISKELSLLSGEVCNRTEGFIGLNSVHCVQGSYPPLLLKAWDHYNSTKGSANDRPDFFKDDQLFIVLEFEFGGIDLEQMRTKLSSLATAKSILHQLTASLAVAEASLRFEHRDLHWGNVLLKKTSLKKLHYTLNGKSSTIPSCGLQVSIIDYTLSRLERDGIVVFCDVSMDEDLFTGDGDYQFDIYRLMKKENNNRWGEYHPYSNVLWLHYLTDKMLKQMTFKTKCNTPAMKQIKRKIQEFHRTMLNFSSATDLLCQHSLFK
# Procedure: (§1) With the amide kinase inhibitor library established, kinase inhibition and AML cell line (Molm-14, which harbors FLT3-ITD) growth inhibition were analyzed (Table 1). More specifically, Haspin and FLT3 inhibition were evaluated in-house via ADP Glo Kinase Assay (Promega, Madison, WI). […] Values reported are means of triplicates.
# (§2) Briefly, the ADP-Glo Kinase Assay Kit was used to determine inhibition of haspin. Kinase Buffer (SignalChem Cat #K01-09; 25 mM MOPS, pH 7.2, 12.5 mM β-glycerol-phosphate, 25 mM MgCl2, 2 mM EDTA) was supplemented with dithiothreitol (DTT) (0.2 mM) and bovine serum albumin (BSA) (40 μg/mL) immediately prior to use. Reaction volumes of 5 μL containing 9 ng/μL kinase, 10 μM ATP, 50 nM inhibitor, and the appropriate peptide substrate (20 μM) were incubated for 3 hours, and then quenched with an equal volume (5 μL) of GLO reagent. After 40 minutes, 10 μL DET reagent was added and incubated for 1 hour before visualization on a Cytation™ 5 Cell Imaging Multi-Mode Reader (BioTek).
# FLT3 = target: T2, FLT3 (Homo sapiens, UniProt P36888); experiment: ADP Glo Kinase Assay, FLT3, 50 nM inhibitor; format: biochemical; details: 50 nM inhibitor conc.; means of triplicates; read-out: Percent Inhibition (%) FLT3
# T2 sequence (P36888 27-993): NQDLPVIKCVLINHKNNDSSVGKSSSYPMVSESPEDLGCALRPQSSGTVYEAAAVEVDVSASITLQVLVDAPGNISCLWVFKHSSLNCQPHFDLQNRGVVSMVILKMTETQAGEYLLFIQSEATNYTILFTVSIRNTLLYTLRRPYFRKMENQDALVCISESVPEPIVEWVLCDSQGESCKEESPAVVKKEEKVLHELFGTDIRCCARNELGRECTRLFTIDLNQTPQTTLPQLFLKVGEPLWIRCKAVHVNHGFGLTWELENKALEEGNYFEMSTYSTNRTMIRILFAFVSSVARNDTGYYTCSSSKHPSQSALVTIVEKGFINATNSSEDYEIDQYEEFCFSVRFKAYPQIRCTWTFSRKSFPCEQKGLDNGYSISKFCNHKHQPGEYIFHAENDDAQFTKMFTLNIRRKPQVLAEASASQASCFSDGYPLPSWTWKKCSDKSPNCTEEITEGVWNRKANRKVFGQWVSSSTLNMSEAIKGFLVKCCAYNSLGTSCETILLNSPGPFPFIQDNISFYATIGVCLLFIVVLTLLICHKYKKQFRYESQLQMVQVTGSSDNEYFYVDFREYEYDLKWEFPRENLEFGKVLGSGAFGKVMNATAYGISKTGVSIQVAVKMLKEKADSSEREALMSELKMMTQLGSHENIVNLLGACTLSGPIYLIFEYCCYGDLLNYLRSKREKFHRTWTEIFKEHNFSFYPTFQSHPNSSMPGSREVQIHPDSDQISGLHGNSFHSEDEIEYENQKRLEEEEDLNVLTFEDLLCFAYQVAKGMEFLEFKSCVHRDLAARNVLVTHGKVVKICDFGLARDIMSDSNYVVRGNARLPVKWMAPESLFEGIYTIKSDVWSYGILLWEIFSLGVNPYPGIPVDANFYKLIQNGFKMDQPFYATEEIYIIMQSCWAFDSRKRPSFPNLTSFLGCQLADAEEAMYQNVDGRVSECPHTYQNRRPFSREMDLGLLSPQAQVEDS
# Procedure: as §1, §2
# Molm-14 cells (FLT3-ITD) = experiment: AML cell line growth inhibition (CellTiter-Blue), 50 nM; format: cell-based; details: Homo sapiens, 50 nM inhibitor conc., means of triplicates, read-out: Percent Inhibition (%) Molm-14 growth
# Procedure: as §1
# More specifically, cells were cultured to confluence in RPMI medium supplemented with 10% fetal bovine serum and 1× Penicillin-Streptomycin (Gibco™). Cells were plated at 5,000 cells/well in 96 well plates. After 24-hour incubation at 37° C. in a 5% CO2 incubator, compounds diluted in the same media were added to the indicated final concentration and allowed to incubate at 37° C. in a 5% CO2 incubator for 72 hours. Viability was determined using CellTiter-Blue® Cell Viability Assay (Promega, Madison, WI) with absorbance readings at 570 nm performed on a Cytation™ 5 Cell Imaging Multi-Mode Reader (BioTek) 3 hours after addition. Appropriate vehicle and cell-free controls were included. GI50 readings were confirmed by two scientists on two separate days.
# CDK2 = CDK2 (Homo sapiens, UniProt P24941); experiment: CDK2 inhibition (IC50); format: biochemical
# CDK12/CyclinK = CDK12/CyclinK (Homo sapiens, UniProt Q9NYV4); experiment: CDK12/CyclinK inhibition (IC50); format: biochemical
# Sequence of CDK12/CyclinK (Q9NYV4 whole entry): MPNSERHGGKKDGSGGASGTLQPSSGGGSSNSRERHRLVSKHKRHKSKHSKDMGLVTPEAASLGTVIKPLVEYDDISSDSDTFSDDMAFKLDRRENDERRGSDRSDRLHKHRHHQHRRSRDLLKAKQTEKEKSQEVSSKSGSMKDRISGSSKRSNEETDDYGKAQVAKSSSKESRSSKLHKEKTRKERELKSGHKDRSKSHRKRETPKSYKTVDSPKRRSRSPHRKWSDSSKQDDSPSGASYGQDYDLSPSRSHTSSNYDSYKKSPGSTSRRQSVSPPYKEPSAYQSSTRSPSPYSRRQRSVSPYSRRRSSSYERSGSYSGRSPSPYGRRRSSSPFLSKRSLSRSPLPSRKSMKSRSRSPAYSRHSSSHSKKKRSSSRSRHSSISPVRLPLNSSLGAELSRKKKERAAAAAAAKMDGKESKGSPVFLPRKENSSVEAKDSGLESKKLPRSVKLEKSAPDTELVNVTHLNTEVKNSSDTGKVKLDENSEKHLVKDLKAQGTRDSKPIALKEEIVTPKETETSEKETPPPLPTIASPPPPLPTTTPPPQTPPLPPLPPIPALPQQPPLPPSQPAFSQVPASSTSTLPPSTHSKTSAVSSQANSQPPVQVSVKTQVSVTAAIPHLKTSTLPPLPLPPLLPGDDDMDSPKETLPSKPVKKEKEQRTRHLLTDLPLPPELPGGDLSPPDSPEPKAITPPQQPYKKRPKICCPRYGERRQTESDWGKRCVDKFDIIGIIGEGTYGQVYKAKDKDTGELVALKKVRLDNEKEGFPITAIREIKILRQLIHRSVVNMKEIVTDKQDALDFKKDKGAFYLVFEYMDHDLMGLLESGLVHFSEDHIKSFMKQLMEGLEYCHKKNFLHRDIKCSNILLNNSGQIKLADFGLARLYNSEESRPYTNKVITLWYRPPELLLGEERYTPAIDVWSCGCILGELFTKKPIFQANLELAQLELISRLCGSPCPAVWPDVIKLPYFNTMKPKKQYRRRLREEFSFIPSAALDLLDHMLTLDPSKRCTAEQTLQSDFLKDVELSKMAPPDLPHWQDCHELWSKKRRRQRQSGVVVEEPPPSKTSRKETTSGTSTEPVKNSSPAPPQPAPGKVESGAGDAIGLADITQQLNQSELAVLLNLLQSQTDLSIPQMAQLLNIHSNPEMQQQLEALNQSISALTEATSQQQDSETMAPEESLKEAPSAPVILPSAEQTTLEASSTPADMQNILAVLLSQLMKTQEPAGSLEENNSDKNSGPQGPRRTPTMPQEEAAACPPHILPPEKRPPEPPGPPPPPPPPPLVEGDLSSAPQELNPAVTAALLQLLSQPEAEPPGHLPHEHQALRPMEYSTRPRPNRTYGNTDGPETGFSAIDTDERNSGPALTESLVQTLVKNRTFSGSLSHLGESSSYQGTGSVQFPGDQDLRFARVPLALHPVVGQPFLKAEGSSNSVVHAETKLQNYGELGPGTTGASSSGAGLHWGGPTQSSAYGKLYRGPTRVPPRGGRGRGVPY
# Sequence of CDK12/CyclinK (O75909 whole entry partner): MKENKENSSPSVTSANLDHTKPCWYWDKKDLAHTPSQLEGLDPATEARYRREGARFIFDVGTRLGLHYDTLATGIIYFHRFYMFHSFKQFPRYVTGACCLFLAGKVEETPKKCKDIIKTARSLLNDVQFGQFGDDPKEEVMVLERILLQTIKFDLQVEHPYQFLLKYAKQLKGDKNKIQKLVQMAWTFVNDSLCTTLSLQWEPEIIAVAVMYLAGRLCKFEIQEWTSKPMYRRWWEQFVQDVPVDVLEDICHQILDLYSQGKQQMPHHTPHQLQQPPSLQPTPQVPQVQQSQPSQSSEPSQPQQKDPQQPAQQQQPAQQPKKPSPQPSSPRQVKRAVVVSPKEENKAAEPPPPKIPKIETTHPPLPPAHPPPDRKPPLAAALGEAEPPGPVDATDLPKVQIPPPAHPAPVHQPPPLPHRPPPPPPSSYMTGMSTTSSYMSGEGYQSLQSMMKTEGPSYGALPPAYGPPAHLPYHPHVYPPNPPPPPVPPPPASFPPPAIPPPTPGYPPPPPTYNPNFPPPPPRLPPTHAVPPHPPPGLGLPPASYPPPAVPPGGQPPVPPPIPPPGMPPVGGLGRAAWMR
inhibition at 0.05 µM (haspin),inhibition at 0.05 µM (FLT3),IC50 (CDK2),IC50 (CDK12/CyclinK),Structure (SMILES),inhibition at 0.05 µM (Molm-14 cells (FLT3-ITD))
54%,49%,,,"O=C(NCc1c[nH]cn1)c1ccc(-c2nc3ccc4[nH]ncc4c3c3c2CCCC3)cc1 [Compound 4, N-((1H-imidazol-4-yl)methyl)-4-(8,9,10,11-tetrahydro-3H-pyrazolo[4,3-a]phenanthridin-7-yl)benzamide]",67%
33%,31%,,,"O=C(NCCn1ccnc1)c1ccc(-c2nc3ccc4[nH]ncc4c3c3c2CCCC3)cc1 [Compound 5, N-(2-(1H-imidazol-1-yl)ethyl)-4-(8,9,10,11-tetrahydro-3H-pyrazolo[4,3-a]phenanthridin-7-yl)benzamide]",42%
77%,76%,,,"O=C(NCc1ncc[nH]1)c1ccc(-c2nc3ccc4[nH]ncc4c3c3c2CCCC3)cc1 [Compound 6, N-((1HI-imidazol-2-yl)methyl)-4-(8,9,10,11-tetrahydro-3H-pyrazolo[4,3-a]phenanthridin-7-yl)benzamide]",84%
26%,14%,,,"Cn1ccnc1CNC(=O)c1ccc(-c2nc3ccc4[nH]ncc4c3c3c2CCCC3)cc1 [Compound 7, N-((1-methyl-1H-imidazol-2-yl)methyl)-4-(8,9,10,11-tetrahydro-3H-pyrazolo[4,3-a]phenanthridin-7-yl)benzamide]",21%
57%,49%,,,"O=C(NCc1ncn[nH]1)c1ccc(-c2nc3ccc4[nH]ncc4c3c3c2CCCC3)cc1 [Compound 8, N-((4H-1,2,4-triazol-3-yl)methyl)-4-(8,9,10,11-tetrahydro-3H-pyrazolo[4,3-a]phenanthridin-7-yl)benzamide]",48%
53%,88%,,,"O=C(NCc1ncc[nH]1)c1ccc(-c2nc3ccc4[nH]ncc4c3c3c2CCCC3)c(F)c1 [Compound 9, N-((1H-imidazol-2-yl)methyl)-3-fluoro-4-(8,9,10,11-tetrahydro-3H-pyrazolo[4,3-a]phenanthridin-7-yl)benzamide]",87%
57%,51%,,,"O=C(NCc1nnn[nH]1)c1ccc(-c2nc3ccc4[nH]ncc4c3c3c2CCCC3)cc1 [Compound 10, N-((1H-tetrazol-5-yl)methyl)-4-(8,9,10,11-tetrahydro-3H-pyrazolo[4,3-a]phenanthridin-7-yl)benzamide]",50%
76%,85%,,,"O=C(NCc1ncc[nH]1)c1ccc(-c2nc3ccc4[nH]ncc4c3c3c2CCCC3)cc1F [Compound 11, N-((1H-imidazol-2-yl)methyl)-2-fluoro-4-(8,9,10,11-tetrahydro-3H-pyrazolo[4,3-a]phenanthridin-7-yl)benzamide]",80%
41%,46%,,,"O=C(NCc1cc[nH]c1)c1ccc(-c2nc3ccc4[nH]ncc4c3c3c2CCCC3)cc1 [Compound 12, N-((1H-pyrrol-3-yl)methyl)-4-(8,9,10,11-tetrahydro-3H-pyrazolo[4,3-a]phenanthridin-7-yl)benzamide]",39%
68%,53%,,,"O=C(NCc1nccs1)c1ccc(-c2nc3ccc4[nH]ncc4c3c3c2CCCC3)cc1 [Compound 13, 4-(8,9,10,11-tetrahydro-3HI-pyrazolo[4,3-a]phenanthridin-7-yl)-N-(thiazol-2-ylmethyl)benzamide]",55%
97%,94%,,,"Cc1c[nH]c(CNC(=O)c2ccc(-c3nc4ccc5[nH]ncc5c4c4c3CCCC4)cc2)n1 [Compound 14, N-((4-methyl-1H-imidazol-2-yl)methyl)-4-(8,9,10,11-tetrahydro-3H-pyrazolo[4,3-a]phenanthridin-7-yl)benzamide]",
78%,71%,,,"O=C(NCCc1ncc[nH]1)c1ccc(-c2nc3ccc4[nH]ncc4c3c3c2CCCC3)cc1 [Compound 15, N-(2-(1H-imidazol-2-yl)ethyl)-4-(8,9,10,11-tetrahydro-3H-pyrazolo[4,3-a]phenanthridin-7-yl)benzamide]",73%
,,4 nM,9 nM,"O=C(NO)c1ccc(-c2nc3ccc4[nH]ncc4c3c3c2CCCC3)cc1 [Compound HSD1993, N-hydroxy-4-(8,9,10,11-tetrahydro-3H-pyrazolo[4,3-a]phenanthridin-7-yl)benzamide]",
,,7 nM,27 nM,"CN(C)CCNC(=O)c1ccc(-c2nc3ccc4[nH]ncc4c3c3c2CCCC3)cc1 [Compound HSH2177, N-(2-(dimethylamino)ethyl)-4-(8,9,10,11-tetrahydro-3H-pyrazolo[4,3-a]phenanthridin-7-yl)benzamide]",
39%,81%,,,"FC(F)(F)c1n[nH]cc1-c1nc2ccc3[nH]ncc3c2c2c1CCCC2 [HSD1169, reference compound]",90%
,,185 nM,,"NC(=O)c1ccc(-c2nc3ccc4[nH]ncc4c3c3c2CCCC3)cc1 [HSD1217, reference compound]",
,,,60 nM,"CN(C)C/C=C/C(=O)Nc1ccc(C(=O)N2CCC[C@@H](Nc3ncc(Cl)c(-c4c[nH]c5ccccc45)n3)C2)cc1 [THZ531, reference compound]",
